# Measured values from patent publication EP4700096A1, “INK COMPOSITION FOR INK-JET PRINTING” (Sakata INX Corporation, priority 2023, dated 2024).
# Test: SP value (solubility parameter) calculated by Formula 1
# Assay type: physicochemical
# Settings: 25°C (298 K), calculated by Formula 1 from latent heat of vaporization, molecular weight, density
# Excerpt: The SP value refers to the solubility parameter, and the SP value of the water-soluble organic solvent (B) can be determined by formula 1 below. SP value(unit:((cal/cm^3))^(1/2)) = ({(ΔH−RT)/(M/D)})^(1/2) [formula]
row,SP value (25°C),Structure (SMILES)
1,14.9 (cal/cm^3)^1/2,OCC(O)CO [glycerin]
2,9.0 (cal/cm^3)^1/2,CC(O)COC(C)COC(C)CO (stereo not drawn) [Tripropylene glycol]
3,12.6 (cal/cm^3)^1/2,"CC(O)CO (stereo not drawn) [1,2-propanediol]"
